According to EP0354042A2, “Aminobenzoic-acid derivatives to reduce side effects induced by an administration of immuno-suppressant” (priority 1988, dated 1990):

Key:
[1] = tested on: Jcl:ICR mice; test: Acute toxicity (LD50, Litchfield-Wilcoxon); assay type: in vivo; settings: observed 7 days; for LD₅₀ Value Intraperitoneal: in physiological saline solution; for LD₅₀ Value Oral: oral by stomach sonde, in distilled water
Protocol: The acute toxicity was studied with Jcl:ICR mice through intraperitoneal route and oral route. For intraperitoneal route, the present substance was dissolved in a physiological saline solution and a predetermined dose of the substance was administered with an injector to the cavity. For oral route, the present substance was dissolved in a distilled water and administered forcibly through a stomach sonde.
After the administration, observation of toxicopathic symptoms of the mice were continued for 7 days and based on time to time death rates of the mice, LD₅₀ values were calculated. Both surviving and dead mice were anatomized and observed certain organs.

[2] = tested on: Bacillus subtilis M45; test: Mutagenicity Rec-assay, recombination repair deficient strain; settings: for Growth Inhibited Area M45 - H17: difference between strains
Protocol: (§1) First, mutagenecity was studied with Rec-assay. […] The present substance was dissolved with sterlized water, 0.05 ml of the solution was absorbed by a round filter paper having a diameter of 8 mm and immediately the filter paper was laid on the medium (B-II agar) in a manner to cover each of the satrt point of the streak. Then, the mdium was cultured for 16 hours at a temperature of 37°C and measured growth inhibited area. Kanamycin was used as a negative control and mitomycin as a positive control.

[3] = tested on: Bacillus subtilis H17; test: Mutagenicity Rec-assay, recombination repair proficient strain
Protocol: as §1

[4] = tested on: TA100 of Salmonella typhimurium; test: Reversion assay (reversion colony test) TA100; assay type: cell-based
Protocol: (§2) In addition, a reversion assay was performed using TA98 and TA100 of Salmonella typhimurium (both are histidine-requiring bacteria).
(§3) 10% by volume of 0.5 mM bithion solution containing 0.5 mM histidine was added to a soft agar solution (prepared with 6g of NaCl, 6g of agar and 1,000 ml of distilled water). Then, 0.1 ml of a solution containing 1 x 10⁸ of the bacteria and 0.1 ml of a solution of the present substance were added to 2 ml of the soft agar solution, mixed well and obtained soft agar solution was multilayered on a minimal agar medium. The medium layered was cultured at 37°C for 2 days and number of reversion colonies was counted. Furylfuramide (AF2) was used as a positive control.

[5] = tested on: TA98 of Salmonella typhimurium; test: Reversion assay (reversion colony test) TA98; assay type: cell-based
Protocol: as §2, §3

[6] = Body weight of rats given CsA with the present substance; assay type: in vivo, Wistar male rats; settings: at completion of the test; CsA 25 mg/kg/day i.p. 3 weeks plus present substance 300 mg/kg/day orally
Protocol: (§4) Various clearance tests and a saccharide tolerance test were performed after completion of the administrations. Then, after sacrificing the rats, their blood was taken for serum biochemical and general blood tests.

[7] = tested on: Wistar male rats; test: Kidney function (inulin clearance, serum creatinine) of rats given CsA with the present substance; assay type: in vivo; settings: CsA 25 mg/kg/day i.p. 3 weeks plus present substance 300 mg/kg/day orally
Protocol: as §4

[8] = tested on: Wistar male rats; test: Saccharide tolerance test (pancreas function) of rats given CsA with the present substance; assay type: in vivo; settings: CsA 25 mg/kg/day i.p. 3 weeks plus present substance 300 mg/kg/day orally
Protocol: as §4

[9] = tested on: Wistar male rats; test: Serum biochemical test, total bilirubin (liver function) of rats given CsA with the present substance; assay type: in vivo; settings: CsA 25 mg/kg/day i.p. 3 weeks plus present substance 300 mg/kg/day orally
Protocol: as §4

[10] = tested on: human lymphocyte; test: Mixed lymphocyte culture, 3H-thymidine uptake (proliferation of lymphocytes); assay type: cell-based; settings: CsA 0.1 µg/ml plus present substance 100 µg/ml, cultured 6 days;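 also: percent suppression of proliferation derived from uptake with CsA alone versus CsA plus substance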
Protocol: A mixture of 50 µl of human lymphocyte (1.6 x 10⁶/ml) with 50 µl of the lymphocytes treated with mitomycin C (MMC) (1.7 x 10⁶/ml) was cultured for 6 days and an uptake of ³H-thymidine, an index of proliferation of lymphocyte, was studied. The medium used for culture comprised bovine fetal serum (10% in quantity) and RPMI 1640 (90% in quantity). […] From the calculated ratio, the effects of the present substance on immuno function were studied.

[11] = 5,000 µg/disk, 16 hours at 37°C
[12] = 5,000 µg/disk, 37°C for 2 days, Drug-free Control 149
[13] = 5,000 µg/disk, 37°C for 2 days, Drug-free Control 13

Structure (SMILES)	LD₅₀ Value Intraperitoneal [1]	LD₅₀ Value Oral [1]	Growth Inhibited Area M45 ([2]; 500 µg/disk, 16 hours at 37°C)	Growth Inhibited Area M45 - H17 ([2]; 500 µg/disk)	Growth Inhibited Area M45 [2, 11]	Growth Inhibited Area M45 - H17 ([2]; 5,000 µg/disk)	Growth Inhibited Area H17 ([3]; 500 µg/disk, 16 hours at 37°C)	Growth Inhibited Area H17 [3, 11]	No. of Reversion Colony TA100 [4, 12]	No. of Reversion Colony TA98 [5, 13]	Body Weight [6]	Kidney Function Inulin Clearance [7]	Kidney Function Serum Creatinine [7]	Blood sugar value measured 10 minutes after the test [8]	Insuline Value 10 Min.After The Test [8]	Insuline Value Before The Test [8]	TBI (seerum total bilirubin value) [9]	Depressing Ratio [10]	further results
C[C@@H]1OC(Nc2ccc(C(=O)O)cc2)[C@H](O)[C@H](O)[C@H]1O (stereo partly drawn) [Compound 18, p-Aminobenzoic acid-N-L-rhamnoside]	15000 mg/kg	12800 mg/kg	0 mm	0 mm	0 mm	0 mm	0 mm	0 mm	73 n/plate	4 n/plate	238 g	1.97 mL/min	0.64 mg/dL	573 mg/dL	6.44 mµ/ml	4.30 mµ/ml	0.29 mg/dL	27%	
O=C(O)c1ccc(NC2O[C@H](CO)[C@@H](O)[C@H](O)[C@@H]2O)cc1 (stereo partly drawn) [Compound 22, p-Aminobenzoic acid-N-D-mannoside]	> 10000 mg/kg	>10000 mg/kg	0 mm	0 mm	0 mm	0 mm	0 mm	0 mm	138 n/plate	5 n/plate	245 g	2.05 mL/min	0.63 mg/dL	569 mg/dL	6.50 mµ/ml	4.45 mµ/ml	0.27 mg/dL	28%	
O=C(O)c1ccc(NC2OC[C@@H](O)[C@H](O)[C@H]2O)cc1 (stereo partly drawn) [Compound 6, p-Aminobenzoic acid-N-D-xyloside]	11040 mg/kg	11750 mg/kg	0 mm	0 mm	0 mm	0 mm	0 mm	0 mm	58 n/plate	4 n/plate	208 g	1.70 mL/min	0.66 mg/dL	598 mg/dL	6.20 mµ/ml	4.28 mµ/ml	0.35 mg/dL	26%	
O=C([O-])c1ccccc1NC1OCC(O)C(O)C1O.[Na+] [Compound 4, o-Aminobenzoic acid-N-L-arabinoside]	7480 mg/kg	6350 mg/kg	0 mm	0 mm	8 mm	4 mm	0 mm	4 mm	59 n/plate	4 n/plate	218 g	1.78 mL/min	0.67 mg/dL	591 mg/dL	6.22 mµ/ml	3.89 mµ/ml	0.37 mg/dL	26%	
O=C(O)c1ccc(NC2OC[C@H](O)[C@H](O)[C@H]2O)cc1 (stereo partly drawn) [Compound 2, p-Aminobenzoic acid-N-L-arabinoside]	10220 mg/kg	10800 mg/kg	0 mm	0 mm	0 mm	0 mm	0 mm	0 mm	51 n/plate	3 n/plate	220 g	1.81 mL/min	0.65 mg/dL	588 mg/dL	6.12 mµ/ml	4.02 mµ/ml	0.35 mg/dL	26%	
O=C(O)c1ccc(NC2O[C@H](CO)[C@H](O)[C@H](O)[C@H]2O)cc1 (stereo partly drawn) [Compound 14, p-Aminobenzoic acid-N-D-galactoside]	12000 mg/kg	14550 mg/kg	0 mm	0 mm	0 mm	0 mm	0 mm	0 mm	51 n/plate	7 n/plate	215 g	1.88 mL/min	0.66 mg/dL	584 mg/dL	6.10 mµ/ml	4.13 mµ/ml	0.33 mg/dL	26%	
O=C(O)c1ccc(NC2O[C@H](CO)[C@@H](O)[C@H](O)[C@H]2O)cc1 (stereo partly drawn) [Compound 10, p-Aminobenzoic acid-N-D-glucoside]	> 15000 mg/kg	> 15000 mg/kg	0 mm	0 mm	0 mm	0 mm	0 mm	0 mm	104 n/plate	11 n/plate	235 g	1.85 mL/min	0.65 mg/dL	612 mg/dL	6.02 mµ/ml	4.05 mµ/ml	0.36 mg/dL	26%	
O=C(O)c1cccc(NC2O[C@H](CO)[C@@H](O)[C@H](O)[C@@H]2O)c1 (stereo partly drawn) [Compound 24, m-Aminobenzoic acid-N-D-mannoside]	> 10000 mg/kg	> 10000 mg/kg	0 mm	0 mm	7 mm	6 mm	0 mm	1 mm	90 n/plate	6 n/plate	240 g	2.00 mL/min	0.64 mg/dL	578 mg/dL	6.37 mµ/ml	4.40 mµ/ml	0.30 mg/dL	27%	
NC[C@H]1O[C@H](O[C@H]2[C@H](O)[C@@H](O[C@H]3O[C@H](CO)[C@@H](O)[C@H](N)[C@H]3O)[C@H](N)C[C@@H]2N)[C@H](O)[C@@H](O)[C@@H]1O [Kanamycin, reference compound]																			Growth Inhibited Area M45 ([2]; 10 µg/disk, negative control): 5 mm; Growth Inhibited Area M45 - H17 ([2]; 10 µg/disk, negative control): 1 mm; Growth Inhibited Area H17 ([3]; Bacillus subtilis, 16 h, 10 µg/disk, pH 7): 4 mm
NC(=O)/C(=C\c1ccc([N+](=O)[O-])o1)c1ccco1 [Furylfuramide (AF2), Furylfuramide, reference compound]																			No. of Reversion Colony TA100 ([4]; 0.1 µg/disk, positive control): 911 n/plate; No. of Reversion Colony TA98 ([5]; 0.1 µg/disk, positive control): 167 n/plate
